According to patent US11357871B2, “Challenge test for diagnosing subtypes of ASD” (Stalicla S.A., priority 2017, dated 2022):
Where two headings read alike, the source gives them in different places.

Tests used:
[1] = test system: lymphoblastoid cell lines of ASD phenotype 1 patients; assay: Biolog Phenotype Mammalian MicroArray (PM-M) NADH/energy production, phenotype 1 cells; format: cell-based, human; conditions: cells exposed to the substance; AUC (Figure 1) and endpoint absorbance (Table 1)
Protocol: From all subjects, blood samples were collected and lymphoblastoid cell lines generated. Briefly, tubes containing anticoagulant citrate dextrose (ACD) were used to collect blood samples via venipuncture, in order to ensure that the blood cells remained metabolically active. The tubes were kept at room temperature and processed within 24 hours.
Cell lines were obtained by immortalization of lymphocytes from blood samples using Epstein-Barr virus.
Energy production of cells was measured using commercially available Phenotype Mammalian MicroArrays (PM-Ms, Biolog, Hayward, Calif., USA).
The compound in each well was designed to be used by the cells, either as the sole energy source or as the metabolic effector influencing the utilization of an energy source (α-D-glucose) added in the cell suspension. […] Before plating, cell viability and number were assessed utilizing a BioRad cell counter and a trypan blue dye. The concentration of live cells required for plating was 4×10^5 cells/mL, corresponding to 20,000 cells per well in a volume of 50 μL. […] Cells were incubated for 48 h at 37° C. in 5% CO2, using the modified Biolog IF-M1 medium.
The Biolog IF-M1 medium was modified for plates PM-M1 to M4 by adding the following to 100 mL of Biolog IF-M1: 1.1 mL of 100× penicillin/streptomycin solution, 0.16 mL of 200 mM glutamine (final concentration 0.3 mM), and 5.3 mL of Fetal Bovine Serum (FBS, final concentration 5%). For plates PM-M5 to M8, 5.5 mM α-D-glucose will be added in place of FBS.
During the 48-hour incubation, the only energy source the cells had was the chemical in the well. After this first incubation, Biolog Redox Dye Mix MB was added (10 μL/well) and the plates were incubated under the same conditions for an additional 24 hours. As the cells metabolized the energy source, tetrazolium dye in the media was reduced, producing a purple color according to the amount of NADH generated.
For the last 24 hours of the experiment, the plates were incubated in the Omnilog system, which collects optical density readings every 15 minutes, generating 96 data-points for each well. The system also elaborated the kinetic curve for the metabolic reaction in each well and extrapolated parameters such as slope, highest point, endpoint, area under the curve (AUC), and lag.
At the end of the 24-hour incubation, the plates were analyzed utilizing a microplate reader with readings at 590 and 750 nm. The first value (A590) indicated the highest absorbance peak of the redox dye and the second value (A750) gave a measure of the background noise. The relative absorbance (A590-750) was calculated per well.

[2] = test system: ASD phenotype 1 patients; assay: Nrf2-activator challenge test, ASD phenotype 1 patients (ADI-R, CGI-S, CGI-I); format: in vivo, human; conditions: selected patient cohort
Protocol: (§1) The effects of sulforaphane containing Broccoli sprout extract was observed and quantified in 7 individuals suffering from ASD and previously classified as either phenotype 1 or phenotype 2 patients.
The extract was prepared from selected broccoli seeds known to have high yield of sulforaphane which were surface-disinfected and grown (sprouted) for 3 days in a commercial sprouting facility under controlled light and moisture conditions.

[3] = test system: ASD phenotype 2 patients; conditions: wording of CGI-I rating
Protocol: as §1
We describe a procedure consisting of an evaluation of patients with ASD prior and after administration of broccoli sprout extract. The extract was prepared from selected broccoli seeds known to have high yield of sulforaphane which were surface-disinfected and grown (sprouted) for 3 days in a commercial sprouting facility under controlled light and moisture conditions. A boiling water extract was prepared, filtered, cooled, and treated with the enzyme myrosinase (from daikon sprouts) to convert precursor glucosinolates to isothiocyanates. Behavioral evaluation of patients was performed prior, during and after administration of sulforaphane-containing broccoli sprout extract. Baseline evaluation of patients was performed using standard clinical endpoints (ADI-R subscales ADI-SI, ADI-C and ADI-RI).
Challenge regimen consisted of the administration of a Broccoli Sprout Extract dose corresponding to a total daily dosage of 4 μmol/kg of sulforaphane, administered in 3 doses over the course of the day. […]

| Compound | NADH production of ASD phenotype 1 cells compared to TDs and non-phenotype 1 cells [1] | further results |
| --- | --- | --- |
| IL-6: Th1 cytokine | significantly lower levels of NADH | – |
| FGF-1(aFGF): growth factor that selectively targets the PI3K-Akt-mTOR pathway | significantly reduced production of NADH | – |
| IL-1beta: Th1 cytokine | significantly lower levels of NADH | – |
| PDGF-AB: platelet-derived growth factor AB | no significant differences | – |
| hGH(Somatotropin): growth factor that selectively targets the PI3K-Akt-mTOR pathway | significantly reduced production of NADH | – |
| C[S@@+]([O-])CCCCN=C=S [sulforaphane, 1-isothiocyanato-4R-(methylsulfinyl)butane] | – | reduction of disease severity as measured through the ADI-R, SRS and GGI-S/CGI-I [2]: not effective in reducing disease severity; Clinical significance ([3]; Example 4 Patient 1 (phenotype 2)): Very much improved; Clinical significance ([3]; Example 4 Patient 2 (phenotype 2)): Very much improved |
| IGF-I: insulin-like growth factor 1 | no significant differences | – |
